Laboratory results from PMC8161026, “Synthesis and Anticancer Activity Evaluation of 5-[2-Chloro-3-(4-nitrophenyl)-2-propenylidene]-4-thiazolidinones” (Molecules, 2021).

Assays:
[1] = system: Breast Cancer subpanel; experiment: cells
Method: (§1) At the first stage of biological activity study, the antitumor activity screening of the selected compounds 2b, 2c, 2f, 2h, and 2j was performed according to the NCI DTP (USA) standard protocol at the concentrations ranging from 10^−4 to 10^−8 M toward 60 tumor cell lines. The percentage of growth was evaluated spectrophotometrically versus controls not treated with test agents after 48 h exposure and using SRB protein assay to estimate cell viability or growth. Dose–response parameters were calculated for each cell line: GI50—molar concentration of the compound that inhibits 50% net cell growth; TGI—molar concentration of the compound leading to the total inhibition; and LC50—molar concentration of the compound leading to 50% net cell death. Furthermore, mean graph midpoints (MG_MID) were calculated for each of the parameters, giving an average activity parameter over all cell lines for the tested compound. For the MG_MID calculation, insensitive cell lines were included with the highest concentration tested.
(§2) The selectivity index (SI) obtained by dividing the full panel MG-MID (mM) of the tested compound by their individual subpanel MG-MID (mM) was considered as a measure of selectivity of anticancer activity (Table 3).
(§3) Primary anticancer assay was performed on a panel of approximately sixty human tumor cell lines derived from nine neoplastic diseases, in accordance with the protocol of the Drug Evaluation Branch, National Cancer Institute, Bethesda. Tested compounds were added to the culture at a single concentration (10^−5 M) and the cultures were incubated for 48 h. End point determinations were made with a protein binding dye, sulforhodamine B (SRB). […] The percentage growth was evaluated spectrophotometrically versus controls not treated with test agents.
(§4) Dose–response parameters (GI50, TGI, LC50) were calculated for each compound. […] The drug concentration resulting in total growth inhibition (TGI) was calculated from Ti = Tz. The LC50 (concentration of drug resulting in a 50% reduction in the measured protein at the end of the drug treatment as compared to that at the beginning) indicating a net loss of cells following treatment was calculated from [(Ti − Tz)/Tz] × 100 = −50 (2). Values were calculated for each of these parameters if the level of activity was reached; however, if the effect was not reached or was excessive, the value for that parameter was expressed as more or less than the maximum or minimum concentration tested.

[2] = system: CNS Cancer subpanel; experiment: cells
Method: as §1, §2, §3, §4

[3] = system: Colon Cancer subpanel; experiment: cells
Method: as §1, §2, §3, §4

[4] = system: Leukemia subpanel; experiment: cells
Method: as §1, §2, §3, §4

[5] = system: Melanoma subpanel; experiment: cells
Method: as §1, §2, §3, §4

[6] = system: Non-Small Cell Lung Cancer subpanel; experiment: cells
Method: as §1, §2, §3, §4

[7] = system: Ovarian Cancer subpanel; experiment: cells
Method: as §1, §2, §3, §4

[8] = system: Prostate Cancer subpanel; experiment: cells
Method: as §1, §2, §3, §4

[9] = system: Renal Cancer subpanel; experiment: cells
Method: as §1, §2, §3, §4

[10] = system: 60 tumor cell lines; experiment: NCI60 full panel MG_MID
Method: as §1, §3, §4

[11] = system: MOLT-4
[12] = system: MOLT-4; experiment: cells; conditions: Homo sapiens, MOLT-4, 48 h
[13] = system: T-47D; conditions: T-47D (Breast Cancer), 48 h, SRB
[14] = system: RPMI-8226; experiment: cells; conditions: Homo sapiens, RPMI-8226, 48 h
[15] = system: DU-145; experiment: cells; conditions: Homo sapiens, DU-145, 48 h
[16] = system: T-47D; experiment: cells; conditions: Homo sapiens, T47D, 48 h
[17] = system: HOP-92; experiment: NCI DTP 60 cell line screen, SRB
[18] = system: Colo 205; experiment: NCI DTP 60 cell line screen, SRB
[19] = system: OVCAR-4; experiment: NCI DTP 60 cell line screen, SRB
[20] = Homo sapiens, read-out: MG_MID, GI50
[21] = Homo sapiens, read-out: MG_MID, LC50
[22] = full panel MG_MID / Breast Cancer subpanel MG_MID
[23] = full panel MG_MID / CNS Cancer subpanel MG_MID
[24] = full panel MG_MID / Colon Cancer subpanel MG_MID
[25] = full panel MG_MID / Leukemia subpanel MG_MID
[26] = full panel MG_MID / Melanoma subpanel MG_MID
[27] = full panel MG_MID / Non-Small Cell Lung Cancer subpanel MG_MID
[28] = full panel MG_MID / Ovarian Cancer subpanel MG_MID
[29] = full panel MG_MID / Prostate Cancer subpanel MG_MID
[30] = full panel MG_MID / Renal Cancer subpanel MG_MID

For `O=C1/C(=C/C(Cl)=C/c2ccc([N+](=O)[O-])cc2)SC(=S)N1c1ccc(O)cc1` [Compound 2f, 5-[(Z,2Z)-2-Chloro-3-(4-nitrophenyl)-2-propenylidene]-3-(4-hydroxyphenyl)-2-thioxo-4-thiazolidinone], the “MG_MID, TGI” value ([1]; Breast Cancer panel mean) was 11.6 µM, the GI50 [1, 20] was 1.89 µM and the CC50 [1, 21] was 98.7 µM. For the same compound, the “SI (selectivity index), GI50” value [1, 22] was 1.48, the “SI (selectivity index), LC50” value [1, 22] was 0.82 and the “SI (selectivity index), TGI” value [1, 22] was 2.78. The “MG_MID, TGI” value ([2]; CNS Cancer panel mean) was 30.6 µM, the GI50 [2, 20] was 6.72 µM and the CC50 [2, 21] was 77.4 µM. For the same compound, the “SI (selectivity index), GI50” value [2, 23] was 0.42, the “SI (selectivity index), LC50” value [2, 23] was 1.04 and the “SI (selectivity index), TGI” value [2, 23] was 1.05. For the same compound, the “MG_MID, TGI” value ([3]; Colon Cancer panel mean) was 67.4 µM, the GI50 [3, 20] was 1.84 µM and the CC50 [3, 21] was 84.5 µM. For the same compound, the “SI (selectivity index), GI50” value [3, 24] was 1.52, the “SI (selectivity index), LC50” value [3, 24] was 0.96 and the “SI (selectivity index), TGI” value [3, 24] was 0.48. The “TI (Therapeutic Index)” value ([4]; GI50 (normal blood lymphocyte)/GI50 (Leukemia Panel)) was >353.36, the GI50 [4, 20] was 0.283 µM and the CC50 [4, 21] was > 100 µM. For the same compound, the “MG_MID, TGI” value ([4]; Leukemia panel mean) was 41.0 µM, the “SI (selectivity index), GI50” value [4, 25] was 9.89 and the “SI (selectivity index), LC50” value [4, 25] was <0.81. For the same compound, the “SI (selectivity index), TGI” value [4, 25] was 0.78, the GI50 [5, 20] was 2.63 µM and the CC50 [5, 21] was 52.3 µM. For the same compound, the “MG_MID, TGI” value ([5]; Melanoma panel mean) was 14.4 µM, the “SI (selectivity index), GI50” value [5, 26] was 1.06 and the “SI (selectivity index), LC50” value [5, 26] was 1.54. For the same compound, the “SI (selectivity index), TGI” value [5, 26] was 2.23, the GI50 [6, 20] was 2.93 µM and the CC50 [6, 21] was 74 µM. The “MG_MID, TGI” value ([6]; Non-Small Cell Lung Cancer panel mean) was 26.6 µM, the “SI (selectivity index), GI50” value [6, 27] was 0.96 and the “SI (selectivity index), LC50” value [6, 27] was 1.09. The “SI (selectivity index), TGI” value [6, 27] was 1.21, the GI50 [7, 20] was 3.32 µM and the CC50 [7, 21] was > 100 µM. The “MG_MID, TGI” value ([7]; Ovarian Cancer panel mean) was 42.5 µM, the “SI (selectivity index), GI50” value [7, 28] was 0.84 and the “SI (selectivity index), LC50” value [7, 28] was <0.81. For the same compound, the “SI (selectivity index), TGI” value [7, 28] was 0.76, the GI50 [8, 20] was 1.48 µM and the CC50 [8, 21] was 75.1 µM. For the same compound, the “SI (selectivity index), GI50” value [8, 29] was 1.89, the “SI (selectivity index), LC50” value [8, 29] was 1.08 and the “SI (selectivity index), TGI” value [8, 29] was 0.71. For the same compound, the GI50 [9, 20] was 2.85 µM, the CC50 [9, 21] was 69.1 µM and the “MG_MID, TGI” value ([9]; Renal Cancer panel mean) was 24.1 µM. The “SI (selectivity index), GI50” value [9, 30] was 0.98, the “SI (selectivity index), LC50” value [9, 30] was 1.17 and the “SI (selectivity index), TGI” value [9, 30] was 1.34. The GI50 ([10]; Homo sapiens, read-out: 60 lines MG_MID, GI50) was 2.8 µM, the CC50 ([10]; Homo sapiens, read-out: 60 lines MG_MID, LC50) was 80.8 µM and the “60 lines MG_MID, TGI” value ([10]; mean over all cell lines) was 32.3 µM. For the same compound, the “TI (Therapeutic Index)” value ([11]; GI50 (normal blood lymphocyte)/GI50 (MOLT-4)) was >257.07, the TGI ([11]; MOLT-4 (Leukemia), 48 h, SRB) was > 100 µM and the GI50 [12] was 0.389 µM. For the same compound, the CC50 ([12]; read-out: LC50) was > 100 µM, the TGI [13] was 7.71 µM and the GI50 [14] was < 0.01 µM. For the same compound, the CC50 ([14]; read-out: LC50) was > 100 µM, the GI50 [15] was 0.666 µM and the CC50 ([15]; read-out: LC50) was 50.1 µM. For the same compound, the GI50 [16] was 1.55 µM, the CC50 ([16]; read-out: LC50) was > 100 µM and the TGI ([17]; HOP-92 (Non-Small Cell Lung Cancer), 48 h, SRB) was 39.4 µM. For the same compound, the GI50 ([17]; Homo sapiens, HOP-92, 48 h) was 8.53 µM, the CC50 ([17]; Homo sapiens, HOP-92, 48 h, read-out: LC50) was > 100 µM and the TGI ([18]; Colo 205 (Colon Cancer), 48 h, SRB) was > 100 µM. For the same compound, the GI50 ([18]; Homo sapiens, COLO 205, 48 h) was 4.34 µM, the CC50 ([18]; Homo sapiens, COLO 205, 48 h, read-out: LC50) was > 100 µM and the GI50 ([19]; Homo sapiens, OVCAR-4, 48 h) was 2.63 µM. The CC50 ([19]; Homo sapiens, OVCAR-4, 48 h, read-out: LC50) was > 100 µM and the TGI ([19]; OVCAR-4 (Ovarian Cancer), 48 h, SRB) was > 100 µM.
